Measured values taken from ChEMBL document CHEMBL1145256, “Synthesis of novel 10-deoxoartemisinins” (Bioorg Med Chem Lett, 2005).

How the values were obtained:
Plasmodium falciparum [1] = test: microbe, parasite or virus in culture
Description: In vitro antimalarial activity against Plasmodium falciparum resistant W-2

Plasmodium falciparum [2] = test: microbe, parasite or virus in culture; remark: listed apart in the source
Description: In vitro antimalarial activity against Plasmodium falciparum (Ghana)

Row | SMILES | IC50 (Plasmodium falciparum [1]) [nM] | IC50 (Plasmodium falciparum [2]) [nM]
1 | C[C@H]1[C@@H](CCOC(=O)C2CCCCC2C(=O)O)O[C@@H]2O[C@]3(C)CC[C@H]4[C@H](C)CC[C@@H]1[C@@]24OO3 (some centres not stated) | 0.4 | 0.5
2 | C[C@@H]1CC[C@H]2[C@@H](C)C(=O)O[C@@H]3O[C@@]4(C)CC[C@@H]1[C@]32OO4 [ARTEMISININ] |  | 9
3 | C[C@H]1[C@@H](CCNCCc2ccccc2)O[C@@H]2O[C@]3(C)CC[C@H]4[C@H](C)CC[C@@H]1[C@@]24OO3 | 20 | 11
4 | C[C@H]1[C@@H](CCNCc2cccnc2)O[C@@H]2O[C@]3(C)CC[C@H]4[C@H](C)CC[C@@H]1[C@@]24OO3 | 1 | 1
5 | C[C@H]1[C@@H](CCOC(=O)CCC(=O)O)O[C@@H]2O[C@]3(C)CC[C@H]4[C@H](C)CC[C@@H]1[C@@]24OO3 | 0.4 | 0.5
6 | C[C@H]1[C@@H](CCO)O[C@@H]2OC3(C)CC[C@H]4[C@H](C)CC[C@@H]1[C@@]24OO3 (single isomer, unassigned) | 1 | 1
7 | C[C@H]1[C@@H](CCNCc2ccccn2)O[C@@H]2O[C@]3(C)CC[C@H]4[C@H](C)CC[C@@H]1[C@@]24OO3 | 2 | 2
8 | C[C@H]1[C@@H](CCOC(=O)C2CC=CCC2C(=O)O)O[C@@H]2O[C@]3(C)CC[C@H]4[C@H](C)CC[C@@H]1[C@@]24OO3 (some centres not stated) | 0.4 | 0.5
9 | CCCNCC[C@H]1O[C@@H]2O[C@]3(C)CC[C@H]4[C@H](C)CC[C@@H]([C@H]1C)[C@@]24OO3 | 3 | 1
